Results: PMC6271531 (2014)

What was measured:
[1] = test system: d(CGCGAATTCGCG)2, Dickerson DNA duplex (ds) (DNA, duplex) CGCGAATTCGCG; assay: ESI-MS, negative mode; conditions: NH4+ (100 mM ammonium acetate); pH 6.7; equimolar; reference ligand, value not shown
[2] = test system: single stranded oligonucleotide d(CGCGAATTCGCG) (ss) (DNA, single strand) CGCGAATTCGCG; assay: ESI-IM-MS, negative mode; conditions: NH4+ (100 mM ammonium acetate); 20% methanol, pH 6.7; 1:10 molar ratio (170 µM compound); very low abundance, none at 1:1

Q: For `N=C(N)c1ccc(N=NNc2ccc(C(=N)N)cc2)cc1`, which binding [1] is on record?
A: Its binding is “yes”.

Q: For `NCCNC(=O)CCN(CCC(=O)NCCN)CCC(=O)NCCN`, which binding [2] is on record?
A: Its binding is “weak”.

Q: How did the binding [2] turn out when `O=C(CCN(CCC(=O)NCCNC(=S)Nc1ccccc1)CCC(=O)NCCNC(=S)Nc1ccccc1)NCCNC(=S)Nc1ccccc1` was run?
A: The binding was “weak”.
